Source: PubChem BioAssay (NCI)
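Cultured in 96-well plates, cells were exposed to test compound for 48 hours across five concentrations. GI50 marks 50% less growth. The concentration for full growth arrest is given as TGI.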

Key:
Test in all cases: NCI-60 cell line screen, 48 h
SF-295 CNS = system: SF-295 CNS
SW-620 colon = system: SW-620 colon
ACHN renal = system: ACHN renal
SN12C renal = system: SN12C renal
HOP-62 NSCLC = system: HOP-62 NSCLC
LOX IMVI melanoma = system: LOX IMVI melanoma
NCI-H23 lung = system: NCI-H23 lung
OVCAR-8 ovarian = system: OVCAR-8 ovarian
NCI/ADR-RES ovarian = system: NCI/ADR-RES ovarian
SNB-75 CNS = system: SNB-75 CNS
SF-268 CNS = system: SF-268 CNS
K-562 leukemia = system: K-562 leukemia
SK-OV-3 ovarian = system: SK-OV-3 ovarian
PC-3 prostate = system: PC-3 prostate
UACC-257 melanoma = system: UACC-257 melanoma
MDA-MB-231 breast = system: MDA-MB-231 breast
MALME-3M melanoma = system: MALME-3M melanoma
SR leukemia = system: SR leukemia
786-0 renal = system: 786-0 renal
RXF 393 renal = system: RXF 393 renal
EKVX NSCLC = system: EKVX NSCLC
NCI-H226 lung = system: NCI-H226 lung
RPMI-8226 leukemia = system: RPMI-8226 leukemia
U251 CNS = system: U251 CNS
CAKI-1 renal = system: CAKI-1 renal
T-47D breast = system: T-47D breast
UACC-62 melanoma = system: UACC-62 melanoma
DU-145 prostate = system: DU-145 prostate
A498 renal = system: A498 renal
SK-MEL-2 melanoma = system: SK-MEL-2 melanoma
BT-549 breast = system: BT-549 breast
HS 578T breast = system: HS 578T breast
SK-MEL-5 melanoma = system: SK-MEL-5 melanoma
HOP-92 NSCLC = system: HOP-92 NSCLC
NCI-H460 lung = system: NCI-H460 lung
TK-10 renal = system: TK-10 renal
HCT-116 colon = system: HCT-116 colon
SF-539 CNS = system: SF-539 CNS
MDA-MB-435 = system: MDA-MB-435
UO-31 renal = system: UO-31 renal
MCF7 breast = system: MCF7 breast
NCI-H522 lung = system: NCI-H522 lung
OVCAR-5 ovarian = system: OVCAR-5 ovarian
HCC-2998 colon = system: HCC-2998 colon
CCRF-CEM leukemia = system: CCRF-CEM leukemia
MOLT-4 leukemia = system: MOLT-4 leukemia
KM12 colon = system: KM12 colon
M14 melanoma = system: M14 melanoma
SNB-19 CNS = system: SNB-19 CNS
OVCAR-3 ovarian = system: OVCAR-3 ovarian
IGROV1 ovarian = system: IGROV1 ovarian
A549 NSCLC = system: A549 NSCLC
SK-MEL-28 melanoma = system: SK-MEL-28 melanoma
HT29 colon = system: HT29 colon
OVCAR-4 ovarian = system: OVCAR-4 ovarian
COLO 205 colon = system: COLO 205 colon
HCT-15 colon = system: HCT-15 colon

SMILES: N/C(=N\Nc1nc2cc([N+](=O)[O-])ccc2o1)c1ccccn1
- TGI (SF-295 CNS): 14 µM
- TGI (SW-620 colon): > 100 µM
- TGI (ACHN renal): 9.6 µM
- TGI (SN12C renal): 3.85 µM
- TGI (HOP-62 NSCLC): 2.8 µM
- TGI (LOX IMVI melanoma): 3.68 µM
- TGI (NCI-H23 lung): 4.26 µM
- TGI (OVCAR-8 ovarian): 10.6 µM
- TGI (NCI/ADR-RES ovarian): 4.45 µM
- TGI (SNB-75 CNS): 2.13 µM
- TGI (SF-268 CNS): 1.62 µM
- TGI (K-562 leukemia): > 100 µM
- TGI (SK-OV-3 ovarian): 6.38 µM
- TGI (PC-3 prostate): 6.14 µM
- TGI (UACC-257 melanoma): 0.341 µM
- TGI (MDA-MB-231 breast): 2.13 µM
- TGI (MALME-3M melanoma): 58.4 µM
- TGI (SR leukemia): 0.0696 µM
- TGI (786-0 renal): 1.93 µM
- TGI (RXF 393 renal): 0.497 µM
- TGI (EKVX NSCLC): 0.202 µM
- TGI (NCI-H226 lung): 38 µM
- TGI (RPMI-8226 leukemia): 4.83 µM
- TGI (U251 CNS): 1.23 µM
- TGI (CAKI-1 renal): 8.44 µM
- TGI (T-47D breast): 0.796 µM
- TGI (UACC-62 melanoma): 1.54 µM
- TGI (DU-145 prostate): 1.11 µM
- TGI (A498 renal): 3.6 µM
- TGI (SK-MEL-2 melanoma): 2.63 µM
- TGI (BT-549 breast): 3.68 µM
- TGI (HS 578T breast): > 100 µM
- TGI (SK-MEL-5 melanoma): 1.45 µM
- TGI (HOP-92 NSCLC): 5.71 µM
- TGI (NCI-H460 lung): 1.19 µM
- TGI (TK-10 renal): 5.51 µM
- TGI (HCT-116 colon): 0.222 µM
- TGI (SF-539 CNS): 1 µM
- TGI (MDA-MB-435): > 100 µM

SMILES: CC(=O)NNC(=O)c1nn(-c2ccc(Cl)cc2)cc1OC(C)=O
- GI50 (UO-31 renal): 17.5 µM
- TGI (UO-31 renal): > 86.8 µM
- GI50 (SF-295 CNS): 15.9 µM
- TGI (SF-295 CNS): > 100 µM
- GI50 (SW-620 colon): 23.6 µM
- TGI (SW-620 colon): > 100 µM
- GI50 (ACHN renal): 15.3 µM
- TGI (ACHN renal): > 66.6 µM
- GI50 (MCF7 breast): > 37 µM
- TGI (MCF7 breast): > 78.4 µM
- GI50 (SN12C renal): 20.8 µM
- TGI (SN12C renal): > 100 µM
- GI50 (NCI-H522 lung): 35.5 µM
- TGI (NCI-H522 lung): > 100 µM
- GI50 (HOP-62 NSCLC): 27.2 µM
- TGI (HOP-62 NSCLC): > 100 µM
- GI50 (LOX IMVI melanoma): 22.5 µM
- TGI (LOX IMVI melanoma): > 100 µM
- GI50 (OVCAR-5 ovarian): > 83.5 µM
- TGI (OVCAR-5 ovarian): > 100 µM
- GI50 (NCI-H23 lung): 22.2 µM
- TGI (NCI-H23 lung): 97.2 µM
- GI50 (OVCAR-8 ovarian): 22.3 µM
- TGI (OVCAR-8 ovarian): > 100 µM
- GI50 (NCI/ADR-RES ovarian): 17 µM
- TGI (NCI/ADR-RES ovarian): 69.7 µM
- GI50 (HCC-2998 colon): 21.4 µM
- TGI (HCC-2998 colon): > 100 µM
- GI50 (SNB-75 CNS): > 66.5 µM
- TGI (SNB-75 CNS): 99.7 µM
- GI50 (SF-268 CNS): 8.85 µM
- TGI (SF-268 CNS): > 71.3 µM
- GI50 (K-562 leukemia): 32.9 µM
- TGI (K-562 leukemia): > 100 µM
- GI50 (CCRF-CEM leukemia): 10.2 µM
- TGI (CCRF-CEM leukemia): > 100 µM
- GI50 (MOLT-4 leukemia): > 21 µM
- TGI (MOLT-4 leukemia): > 100 µM
- GI50 (KM12 colon): 43.7 µM
- TGI (KM12 colon): > 100 µM
- GI50 (SK-OV-3 ovarian): 49.5 µM
- TGI (SK-OV-3 ovarian): > 100 µM
- GI50 (M14 melanoma): 14.2 µM
- TGI (M14 melanoma): 49.7 µM
- GI50 (PC-3 prostate): 5.07 µM
- TGI (PC-3 prostate): > 25 µM
- GI50 (SNB-19 CNS): > 70.2 µM
- TGI (SNB-19 CNS): > 100 µM
- GI50 (UACC-257 melanoma): 87.8 µM
- TGI (UACC-257 melanoma): > 100 µM
- GI50 (MDA-MB-231 breast): 23.7 µM
- TGI (MDA-MB-231 breast): > 87.4 µM
- GI50 (MALME-3M melanoma): 25.7 µM
- TGI (MALME-3M melanoma): > 91.4 µM
- GI50 (786-0 renal): 14.4 µM
- TGI (786-0 renal): > 100 µM
- GI50 (RXF 393 renal): 16.9 µM
- TGI (RXF 393 renal): > 83.2 µM
- GI50 (EKVX NSCLC): 23.7 µM
- TGI (EKVX NSCLC): > 100 µM
- GI50 (OVCAR-3 ovarian): 18.8 µM
- TGI (OVCAR-3 ovarian): > 100 µM
- GI50 (NCI-H226 lung): 22.1 µM
- TGI (NCI-H226 lung): > 100 µM
- GI50 (RPMI-8226 leukemia): 12.1 µM
- TGI (RPMI-8226 leukemia): 64.3 µM
- GI50 (U251 CNS): 11.8 µM
- TGI (U251 CNS): > 100 µM
- GI50 (CAKI-1 renal): 9.3 µM
- TGI (CAKI-1 renal): 82.6 µM
- GI50 (IGROV1 ovarian): 21.5 µM
- TGI (IGROV1 ovarian): > 100 µM
- GI50 (A549 NSCLC): 18.8 µM
- TGI (A549 NSCLC): > 100 µM
- GI50 (T-47D breast): 13.7 µM
- TGI (T-47D breast): 94.6 µM
- GI50 (SK-MEL-28 melanoma): > 56.7 µM
- TGI (SK-MEL-28 melanoma): > 100 µM
- GI50 (UACC-62 melanoma): 19.8 µM
- TGI (UACC-62 melanoma): > 65.3 µM
- GI50 (HT29 colon): 42.4 µM
- TGI (HT29 colon): > 93.4 µM
- GI50 (DU-145 prostate): 18.7 µM
- TGI (DU-145 prostate): > 100 µM
- GI50 (A498 renal): 22.2 µM
- TGI (A498 renal): 91.7 µM
- GI50 (SK-MEL-2 melanoma): > 64.7 µM
- TGI (SK-MEL-2 melanoma): > 100 µM
- GI50 (BT-549 breast): 28.8 µM
- TGI (BT-549 breast): > 100 µM
- GI50 (HS 578T breast): 40 µM
- TGI (HS 578T breast): > 100 µM
- GI50 (SK-MEL-5 melanoma): 10.4 µM
- TGI (SK-MEL-5 melanoma): > 69.1 µM
- GI50 (HOP-92 NSCLC): 38.7 µM
- TGI (HOP-92 NSCLC): > 100 µM
- GI50 (NCI-H460 lung): 5.76 µM
- TGI (NCI-H460 lung): > 100 µM
- GI50 (TK-10 renal): 15.6 µM
- TGI (TK-10 renal): > 100 µM
- GI50 (OVCAR-4 ovarian): 79.6 µM
- TGI (OVCAR-4 ovarian): > 100 µM
- GI50 (COLO 205 colon): 39.1 µM
- TGI (COLO 205 colon): > 100 µM
- GI50 (HCT-116 colon): 14.6 µM
- TGI (HCT-116 colon): > 100 µM
- GI50 (HCT-15 colon): 7.23 µM
- TGI (HCT-15 colon): > 100 µM
- GI50 (SF-539 CNS): 21.9 µM
- TGI (SF-539 CNS): > 100 µM
- GI50 (MDA-MB-435): 30.3 µM
- TGI (MDA-MB-435): > 100 µM
